Experimental data: patent US20250032580A1, “USE OF ADNF POLYPEPTIDES IN THERAPY” (RAMOT AT TEL-AVIV UNIVERSITY LTD., priority 2021, published 2025)
“Also recorded” adds a separate entry of the source.

Legend:
[1] = tested on: Tyr mice; assay: Ultrasonic vocalizations (USV) and syntax, DeepSqueak; assay type: in vivo, mouse; parameters: key to NAP efficacy: speech impediments: corrections by NAP treatment (+)
Description: USV: On P8, each pup was separated from the dam and placed in an empty cage for 6 minutes, in a quiet room and was recorded using the M500-384 USB Ultrasound Microphone (Petterson, Sweden). Pups were distinguished from one another using the tattoos listed above. After 6 minutes pups were reunited with its dam. Data were analyzed using DeepSqueak. Data were loaded onto DeepSqueak, frequencies between 40-70 kHz were analyzed using the mouse call network V2. Calls were denoised using post hoc denoising network. For syntax analysis, Syntax was classified using Wright K means network. Syntax transition probability charts were generated using DeepSqueak and Matlab. Further USV experiments were performed on P8 pups as previously described (12) with slight modifications.

[2] = tested on: adult compromised patients; settings: cited from earlier work
[3] = tested on: BTBR mouse; assay: Social recognition test; assay type: in vivo; settings: BTBR idiopathic autism mouse, FIG. 14
[4] = tested on: Tyr mice; assay: CatWalk gait analysis; assay type: in vivo, mouse; parameters: key to NAP efficacy: motor impediments: corrections by NAP treatment (+)
Description: Animals—Animals were housed under a 12-hour light/dark cycle, with food and water ad-libitum. Mouse pups were subcutaneously administrated with NAP [having an amino acid sequence NAPVSIPQ (SEQ ID NO: 2), 25 μg NAP/1 ml saline] as described (8, 12). At 21 days of age mice were administered daily intranasal NAP in vehicle solution (“DD”—7.5 mg/ml of NaCl, 1.7 mg/ml of citric acid, 3 mg/ml of disodium phosphate dihydrate, and 0.2 mg/ml of 50% benzalkonium chloride solution) (0.5 μg NAP/5p1 DD) (8, 9, 12, and U.S. Pat. No. 10,912,819 to Gozes). These mice continued to behavioral analysis as described hereinbelow. The noninvasive intranasal route was chosen as these experiments required daily handling and administration. Age (weeks) of mice during behavioral experiments (mean±SEM) was as follows: Catwalk-9.23±0.15, grooming-10±0.15, social approach-10.5±0.12, odor-discrimination-12.12±0.13, hanging-wire-13±0.14, hotplate-13.18±0.13. Group size was determined following previous experiments (12). Pups were randomly allocated to either the NAP or DD group according to sex and genotype. All procedures involving animals were conducted under the supervision and approval of the institutional animal care and use committee of Tel Aviv University and the Israeli Ministry of Health.
Catwalk—Was performed as previously described (12).
CatWalk: Briefly, The CatWalk XT (Noldus Inc. Leesburg, VA) was used to analyze the gait of unforced, moving mice^10 Mice had to cross the runway of the CatWalk XT apparatus in a consistent manner, and a successful run was defined when an animal ran the track without any interruption or hesitation. Every mouse was tested until 3 successful runs were achieved.
Base of support is the average width between either the front paws or the hind paws. Swing (sec) or swing phase is the duration in seconds of no contact of a paw with the glass plate. Swing Speed is the speed (Distance Unit/second) of the paw during Swing. Max Contact Max Intensity is the maximum Intensity at Max Contact of a paw. Intensity ranges from 0 to 255 in arbitrary units. The intensity of a print depends on the degree of contact between a paw and the glass plate and increases with increasing weight. Therefore, Intensity is a measure of weight put on the glass plate.
The Intensity parameter is used to assess the effects of neuropathic pain, including mechanical allodynia. Max Contact Mean Intensity is the mean Intensity of a paw at Max Contact. Print length is the length (horizontal direction) of the complete print. The complete print is the sum of all contacts with the glass plate, as if the animal's paw would have been inked. Print width is the width (vertical direction) of the complete paw. Print area is the surface area of the complete print. Max Intensity is the maximum Intensity of the complete paw. Mean intensity is the mean Intensity of the complete paw.

[5] = tested on: Tyr-GFP mice; assay: Dendritic spine quantitation; assay type: in vivo, mouse; parameters: key to NAP efficacy: synaptic structural alterations: corrections by NAP treatment (+)
Description: Spine quantitation—For determination of dendritic spine morphology, the Tyr-GFP mouse model was used and generated as described(12). 1.5-2-month-old Tyr-GFP-mice were treated for 9 consecutive days with either intraperitoneal NAP injection (0.4 μg/0.1 ml saline) or with 0.1 ml saline. On day 9, mice were perfused, and brains were subjected to immunohistochemistry and imaging (12).

[6] = tested on: Tyr mice; assay: RNA seq of mouse spleens; assay type: in vivo; parameters: key to NAP efficacy: gene expression patterns: corrections by NAP treatment (+)
Description: RNA seq—Total RNA was extracted from 14-week-old mouse spleens and sequenced using standard methods on NextSeq500 system (Illumina) as detailed. Data were analyzed as previously described (9).

[7] = tested on: Tyr mice; assay: AT8 (hyperphosphorylated Tau) immunohistochemistry; assay type: in vivo, mouse; parameters: key to NAP efficacy: tauopathy, hyperphosphorylated Tau deposits: corrections by NAP treatment (+)
Description: AT8 Immunohistochemistry—experiment was performed as previously described (100). Mice were treated for 6 weeks with daily intranasal DD/NAP and were euthanized at 10.21±0.05 weeks of age.

[8] = tested on: Adnp+/− mouse; parameters: key: corrections by NAP treatment (+); settings: second symbol of cell, cited from earlier work
[9] = Tyr mouse, first symbol of cell
[10] = males and WT females, data not shown
[11] = male Tyr mice, 6 weeks daily intranasal NAP

## CC[C@H](C)[C@H](NC(=O)[C@H](CO)NC(=O)[C@@H](NC(=O)[C@@H]1CCCN1C(=O)[C@H](C)NC(=O)[C@@H](N)CC(N)=O)C(C)C)C(=O)N1CCC[C@H]1C(=O)N[C@@H](CCC(N)=O)C(=O)O [NAP, NAPVSIPQ]
[1]; NAP-treated Tyr males, 8 for WT and Tyr
  Number of syllables vocalized: 10
[1]; P8 Tyr pups, both sexes
  Syntax complexity: powerful corrective effect on both sexes; also recorded: significant improvement with NAP treatment
[1]; P8 Tyr pups, females and males
  Total USVs produced: no NAP effects
[1]; Tyr mouse (syntax), first symbol of cell
  NAP efficacy: speech impediments: +/+ (syntax)
[1]; WT pups, data not shown
  Syntax: minor varied impact
[2]; adult patients
  Clinical efficacy: enhancement of cognitive function and functional activities of daily living
[2]; hundreds of adult compromised patients
  Safety and tolerance: proven safety and tolerance
[3]
  Effects on social recognition (preference of the mouse rather than the cup): also observed
[4]; Tyr mice, males and females
  Front base of support: NAP correcting this phenotype in males
[4]; Tyr mouse (gait), first symbol of cell
  NAP efficacy: motor impediments: +/(gait)+
[4]; WT mice, data not shown
  Gait parameters: No major NAP effect
[4]; female Tyr mice
  Intensity parameters (gait): significant NAP correction
  Swing speed and swing duration: ameliorated by NAP
[4]; female Tyr mice, FIG. 1F
  Print width: significant NAP correction effect
[4]; male Tyr mice, daily intranasal NAP
  Print length and area: significant NAP recovery
[5]; [9]
  NAP efficacy: synaptic structural alterations: +/+
[5]; female Tyr mice
  Mushroom shaped spine density, motor cortex: significantly affecting
  PSD95 volume in the hippocampus: complete resolution
[5]; female Tyr mice, i.p. NAP, 9 days
  Increase in motor cortex L5 layer spine density: ~17%
[5]; females and WT males, data not shown
  Hippocampal total spines and subtypes: no genotype or treatment changes in females or treatment effect on WT males
[5]; male Tyr mice, i.p. NAP 0.4 μg/0.1 ml saline, 9 days
  Increase in CA1 hippocampal dendritic spine density: ~23%
[5]; [10]
  Motor cortex spine density: No genotype or treatment changes were observed in males and no treatment effect was found on WT females
  Motor cortex spine subtypes: No NAP effect
[6]; Tyr mice, males vs females
  Genotype/NAP effect on splenic gene expression: very minor genotype/NAP effect on males, and a more comprehensive effect on females
[6]; [9]
  NAP efficacy: gene expression patterns: +/+
[6]; female spleens
  Number of RNA transcripts affected by the Tyr Adnp mutation, corrected by NAP treatment: 89
[6]; male spleens
  Number of RNA transcripts affected by the Tyr Adnp mutation, corrected by NAP treatment: 13
[7]; Tyr mice, both sexes, data not shown
  Combined AT8- and AT180-positive cells: correction by NAP in both sexes
[7]; [9]
  NAP efficacy: tauopathy, hyperphosphorylated Tau deposits: +/+
[7]; WT males, data not shown
  AT8 staining: did not display a NAP effect
[7]; [11]
  Decrease of AT8 positive cells in the hippocampus: ~2.57 fold
  Reversal of AT8 staining in the visual cortex: ~2 fold
[8]; Adnp+/− mouse (8)
  NAP efficacy: cognitive impairments, behavioral deficits: +(odor)/+(8)
[8]; Adnp+/− mouse
  NAP efficacy: axonal transport: +/+
  NAP efficacy: gene expression patterns: +/+
  NAP efficacy: global developmental delays: +/+
  NAP efficacy: microbiota: +/+
  NAP efficacy: motor impediments: +/(gait)+
  NAP efficacy: short stature: +
  NAP efficacy: speech impediments: +/+ (syntax)
  NAP efficacy: synaptic structural alterations: +/+
  NAP efficacy: tauopathy, hyperphosphorylated Tau deposits: +/+
